Data as given in ChEMBL document CHEMBL5620374, “Synthesis and bioevaluation of novel stilbene-based derivatives as tubulin/HDAC dual-target inhibitors with potent antitumor activities in vitro and in vivo” (Eur J Med Chem, 2023).
pIC50: −log10 of the molar value. The source made the active and inactive calls. The rule behind the calls is not given here.

How the values were obtained:
[1] = test system: B16-F10; test: Antiproliferative activity against mouse B16-F10 cells incubated for 72 hrs by MTT assay; type: functional, cell-based; details: B16-F10, 72 h
[2] = target: Histone deacetylase 3 (Homo sapiens, UniProt O15379); test: Inhibition of HDAC3 derived from human HeLa cell extract using Ac-Leu-Gly-Lys (Ac)-AMC as substrate by fluorescence based assay; type: cell-free
[3] = target: T1, Protein deacetylase HDAC6 (Homo sapiens, UniProt Q9UBN7); test: Inhibition of HDAC6 derived from human HeLa cell extract using Ac-Leu-Gly-Lys (Ac)-AMC as substrate by fluorescence based assay; type: cell-free
T1 sequence (Q9UBN7 whole entry): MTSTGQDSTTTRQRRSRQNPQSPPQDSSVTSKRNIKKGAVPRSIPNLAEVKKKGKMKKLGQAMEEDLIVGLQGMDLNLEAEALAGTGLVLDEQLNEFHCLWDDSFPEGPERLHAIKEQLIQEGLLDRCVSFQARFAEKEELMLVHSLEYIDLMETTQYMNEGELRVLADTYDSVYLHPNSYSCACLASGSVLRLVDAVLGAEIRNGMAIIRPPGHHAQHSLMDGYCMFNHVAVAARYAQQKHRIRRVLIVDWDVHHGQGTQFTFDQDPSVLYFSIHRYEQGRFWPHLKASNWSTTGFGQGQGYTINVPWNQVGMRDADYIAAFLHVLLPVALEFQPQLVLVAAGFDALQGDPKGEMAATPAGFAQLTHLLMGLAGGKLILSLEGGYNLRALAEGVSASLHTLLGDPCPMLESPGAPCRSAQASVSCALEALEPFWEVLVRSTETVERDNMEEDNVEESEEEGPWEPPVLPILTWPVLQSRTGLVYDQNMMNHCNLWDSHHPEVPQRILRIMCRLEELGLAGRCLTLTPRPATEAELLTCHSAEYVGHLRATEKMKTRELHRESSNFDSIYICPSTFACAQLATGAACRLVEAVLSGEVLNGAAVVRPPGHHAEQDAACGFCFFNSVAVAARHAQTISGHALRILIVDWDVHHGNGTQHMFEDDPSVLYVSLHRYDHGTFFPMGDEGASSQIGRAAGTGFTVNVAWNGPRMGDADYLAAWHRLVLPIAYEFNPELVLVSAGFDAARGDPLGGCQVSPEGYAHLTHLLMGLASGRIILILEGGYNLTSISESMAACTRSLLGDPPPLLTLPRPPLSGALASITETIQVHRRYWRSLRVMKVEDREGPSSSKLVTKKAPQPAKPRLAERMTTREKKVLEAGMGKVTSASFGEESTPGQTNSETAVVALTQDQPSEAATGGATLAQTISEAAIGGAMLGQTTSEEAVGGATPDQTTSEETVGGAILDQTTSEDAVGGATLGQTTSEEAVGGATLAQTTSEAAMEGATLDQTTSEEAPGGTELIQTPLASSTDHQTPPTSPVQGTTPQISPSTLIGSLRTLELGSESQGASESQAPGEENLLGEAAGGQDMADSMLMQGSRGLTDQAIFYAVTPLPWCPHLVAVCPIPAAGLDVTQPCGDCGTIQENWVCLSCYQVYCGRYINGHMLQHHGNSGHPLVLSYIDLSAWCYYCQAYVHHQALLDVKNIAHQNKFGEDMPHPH

[4] = test system: K562; test: Induction of cell cycle arrest at G2 phase in human K562 cells at 2 nM incubated for 48 hrs by PI staining based flow cytometry (Rvb =15.36 +/- 0.46 %); type: functional
[5] = test system: K562; test: Induction of cell cycle arrest at G2 phase in human K562 cells at 4 nM incubated for 48 hrs by PI staining based flow cytometry (Rvb =15.36 +/- 0.46 %); type: functional
[6] = test system: K562; test: Effect on cell cycle in human K562 cells assessed as decrease in Cdc2 level incubated for 24 hrs by Western blot analysis; type: functional, cell-based; details: dose 2-8 nM
[7] = test system: K562; test: Induction of apoptosis in human K562 cells assessed as viable cells at 2 nM incubated for 48 hrs by Annexin V/PI staining based flow cytometry (reference value: 92.52 +/- 0.34 %); type: functional; details: read-out: Activity
[8] = test system: K562; test: Induction of apoptosis in human K562 cells assessed as early apoptotic cells at 2 nM incubated for 48 hrs by Annexin V/PI staining based flow cytometry (reference value: 1.55 +/- 0.21 %); type: functional
[9] = test system: K562; test: Induction of apoptosis in human K562 cells assessed as early apoptotic cells at 4 nM incubated for 48 hrs by Annexin V/PI staining based flow cytometry (reference value: 1.55 +/- 0.21 %); type: functional
[10] = test system: K562; test: Induction of apoptosis in human K562 cells assessed as necrotic cells at 4 nM incubated for 48 hrs by Annexin V/PI staining based flow cytometry (reference value: 2.56 +/- 0.22 %); type: functional
[11] = test system: K562; test: Induction of apoptosis in human K562 cells assessed as early apoptotic cells at 8 nM incubated for 48 hrs by Annexin V/PI staining based flow cytometry (reference value: 1.55 +/- 0.21 %); type: functional
[12] = test system: K562; test: Induction of apoptosis in human K562 cells assessed as increase in Bax level incubated for 24 hrs by Western blot analysis; type: functional, cell-based; details: dose 2-8 nM
[13] = test system: K562; test: Inhibition of mitochondrial membrane potential in human K562 cells assessed as red fluorescence intensity at 4 nM incubated for 48 hrs by JC-1 staining based flow cytometry (reference value: 93.36 +/- 0.21 %); type: functional
[14] = test system: K562; test: Induction of ROS generation in human K562 cells assessed as DCF-positive cells at 8 nM incubated for 48 hrs by DCF-DA probe based flow cytometry (reference value: 3.87 %); type: functional
[15] = test system: MDA-MB-231; test: Inhibition of cell migration in human MDA-MB-231 cells incubated for 48 hrs by crystal violet staining based transwell assay; type: functional; details: dose 2-8 nM
[16] = test system: MDA-MB-231; test: Inhibition of cell […] in human MDA-MB-231 cells incubated for 24 hrs by wound healing assay; type: functional, cell-based; details: dose 2-8 nM
[17] = test system: HUVEC; test: Antivascular activity against HUVEC cells assessed as decrease in cell migration at 8 nM incubated for 24 hrs by wound healing assay; type: functional, cell-based; details: Homo sapiens
[18] = Toxicity in ICR mouse allografted with mouse H22 cells assessed as body weight reduction at 10 to 20 mg/kg, iv qd for 17 days consecutively; type: organism-based; details: in vivo, dose 10-20 mg/kg, time 17 day
[19] = Toxicity in ICR mouse allografted with mouse H22 cells assessed as toxic sign in heart at 10 to 20 mg/kg, iv qd for 17 days consecutively by H and E staining based analysis; type: organism-based; details: in vivo, dose 10-20 mg/kg, time 17 day
[20] = Toxicity in ICR mouse allografted with mouse H22 cells assessed as toxic sign in spleen at 10 to 20 mg/kg, iv qd for 17 days consecutively by H and E staining based analysis; type: organism-based; details: in vivo, dose 10-20 mg/kg, time 17 day
[21] = Toxicity in ICR mouse allografted with mouse H22 cells assessed as toxic sign in kidney at 10 to 20 mg/kg, iv qd for 17 days consecutively by H and E staining based analysis; type: organism-based; details: in vivo, dose 10-20 mg/kg, time 17 day
[22] = test system: MCF7; test: cells; details: Homo sapiens, MCF7, 72 h
Description: Antiproliferative activity against human MCF7 cells incubated for 72 hrs by MTT assay

[23] = test system: A549; test: cells; details: Homo sapiens, A549, 72 h
Description: Antiproliferative activity against human A549 cells incubated for 72 hrs by MTT assay

[24] = test system: A2780; test: cells; details: Homo sapiens, A2780, 72 h
Description: Antiproliferative activity against human A2780 cells incubated for 72 hrs by MTT assay

Histone deacetylase 3, sequence (O15379 whole entry): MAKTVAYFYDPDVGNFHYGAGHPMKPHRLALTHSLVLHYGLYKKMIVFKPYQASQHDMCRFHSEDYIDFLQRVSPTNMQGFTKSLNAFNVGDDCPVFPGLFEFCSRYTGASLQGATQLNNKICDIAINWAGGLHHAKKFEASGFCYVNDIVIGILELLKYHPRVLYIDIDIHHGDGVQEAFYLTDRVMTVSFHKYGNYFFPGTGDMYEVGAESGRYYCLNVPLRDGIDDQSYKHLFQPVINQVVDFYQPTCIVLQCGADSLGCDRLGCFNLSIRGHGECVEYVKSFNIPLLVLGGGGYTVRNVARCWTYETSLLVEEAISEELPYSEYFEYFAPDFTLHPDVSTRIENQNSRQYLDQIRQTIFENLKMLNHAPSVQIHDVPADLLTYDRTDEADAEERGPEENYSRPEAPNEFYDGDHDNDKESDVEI

C=C(c1ccc(OC)c(OC(F)C(=O)NO)c1)c1cc(C)nc2ccccc12 (centres undefined)
pIC50 [1]: 8.30
pIC50 [2]: 5.45
pIC50 [3]: 6.34
Activity [4]: 20.48%
Activity [5]: 23.38%
Activity [6]: Dose-Dependent Effect
viability at 0.002 µM [7]: 81.2%
Activity [8]: 14.52%
Activity [9]: 24.51%
Activity [10]: 0.17%
Activity [11]: 18.11%
Activity [12]: Dose-Dependent Effect
Flu intensity [13]: 68.24%
Activity [14]: 42.67%
inhibition [15]: Dose-Dependent Effect
inhibition [16]: Dose-Dependent Effect
Activity [17]: Active
Activity [18]: Non-Toxic
Activity [19]: Non-Toxic
Activity [20]: Non-Toxic
Activity [21]: Non-Toxic
pIC50 [22]: 7.44
pIC50 [23]: 7.77
pIC50 [24]: 8.30
